From PMC8508710, “Biochemical Characterization of 13-Lipoxygenases of Arabidopsis thaliana” (International Journal of Molecular Sciences, 2021)
Where “and” joins values, the source holds several entries; their conditions need not be identical. Equal values may be shown once. Blank lines part the entries; values can stand above or below the compound they belong to.

Assays:
[1] = biological target: T1, LOX4 (Arabidopsis thaliana, UniProt Q9FNX8); test: LOX4 activity, spectrophotometric (conjugated diene formation at 234 nm); details: for Relative Activity (%) LOX4: substrate specificity, 31 µM PUFA, 4 µg 13-LOX, LeA = 100%
T1 sequence (Q9FNX8 71-926): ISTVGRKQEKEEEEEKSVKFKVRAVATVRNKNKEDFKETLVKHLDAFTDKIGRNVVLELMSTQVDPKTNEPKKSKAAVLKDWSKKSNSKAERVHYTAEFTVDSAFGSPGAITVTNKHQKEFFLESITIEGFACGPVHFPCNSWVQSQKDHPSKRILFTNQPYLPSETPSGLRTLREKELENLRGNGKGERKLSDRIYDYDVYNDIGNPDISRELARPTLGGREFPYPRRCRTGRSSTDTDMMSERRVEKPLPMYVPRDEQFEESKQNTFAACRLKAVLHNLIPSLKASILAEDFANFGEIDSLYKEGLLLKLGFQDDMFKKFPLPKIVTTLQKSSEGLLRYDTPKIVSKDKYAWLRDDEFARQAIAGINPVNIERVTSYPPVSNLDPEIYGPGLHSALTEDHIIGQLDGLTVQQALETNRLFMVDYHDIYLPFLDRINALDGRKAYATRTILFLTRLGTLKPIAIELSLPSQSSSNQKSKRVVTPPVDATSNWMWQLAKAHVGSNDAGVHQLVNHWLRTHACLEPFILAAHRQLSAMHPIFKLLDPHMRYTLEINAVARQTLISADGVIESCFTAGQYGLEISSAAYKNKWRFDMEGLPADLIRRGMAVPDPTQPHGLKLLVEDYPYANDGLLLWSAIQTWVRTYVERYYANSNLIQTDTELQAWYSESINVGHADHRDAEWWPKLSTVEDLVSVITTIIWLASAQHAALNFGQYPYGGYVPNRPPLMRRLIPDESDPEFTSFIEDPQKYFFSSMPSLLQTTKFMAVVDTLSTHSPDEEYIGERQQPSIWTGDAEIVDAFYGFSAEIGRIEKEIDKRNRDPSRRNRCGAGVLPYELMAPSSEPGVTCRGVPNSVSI

[2] = biological target: T2, LOX6 (Arabidopsis thaliana, UniProt Q9CAG3); test: LOX6 activity, spectrophotometric (conjugated diene formation at 234 nm); details: for Relative Activity (%) LOX6: substrate specificity, 31 µM PUFA, 4 µg 13-LOX, LeA = 100%
T2 sequence (Q9CAG3 41-917): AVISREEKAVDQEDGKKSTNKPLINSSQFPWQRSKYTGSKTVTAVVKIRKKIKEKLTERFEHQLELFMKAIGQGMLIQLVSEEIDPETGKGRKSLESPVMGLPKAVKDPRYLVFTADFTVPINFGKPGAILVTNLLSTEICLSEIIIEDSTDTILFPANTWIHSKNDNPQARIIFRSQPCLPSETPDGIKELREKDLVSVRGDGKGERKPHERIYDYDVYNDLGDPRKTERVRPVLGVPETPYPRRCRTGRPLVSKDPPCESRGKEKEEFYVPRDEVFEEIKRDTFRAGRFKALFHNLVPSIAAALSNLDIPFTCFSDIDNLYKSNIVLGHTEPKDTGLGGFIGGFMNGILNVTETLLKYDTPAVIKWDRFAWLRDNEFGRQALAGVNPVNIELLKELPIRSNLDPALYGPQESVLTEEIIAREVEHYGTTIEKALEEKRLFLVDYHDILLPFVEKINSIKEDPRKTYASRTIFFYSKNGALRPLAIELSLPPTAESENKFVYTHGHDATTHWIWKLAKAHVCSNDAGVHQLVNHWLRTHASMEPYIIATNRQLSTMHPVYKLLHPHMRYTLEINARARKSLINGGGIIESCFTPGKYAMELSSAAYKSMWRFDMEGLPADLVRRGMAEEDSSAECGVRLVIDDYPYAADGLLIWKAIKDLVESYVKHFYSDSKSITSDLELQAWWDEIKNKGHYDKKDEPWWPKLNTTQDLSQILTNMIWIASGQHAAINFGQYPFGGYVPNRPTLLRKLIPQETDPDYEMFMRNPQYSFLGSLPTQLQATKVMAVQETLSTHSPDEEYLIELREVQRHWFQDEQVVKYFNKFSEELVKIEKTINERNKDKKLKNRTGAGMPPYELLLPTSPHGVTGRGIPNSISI

[3] = biological target: T3, LOX3 (Arabidopsis thaliana, UniProt Q9LNR3); test: LOX3 activity, spectrophotometric (conjugated diene formation at 234 nm); details: for Relative Activity (%) LOX3: substrate specificity, 31 µM PUFA, 4 µg 13-LOX, LeA = 100%
T3 sequence (Q9LNR3 71-919): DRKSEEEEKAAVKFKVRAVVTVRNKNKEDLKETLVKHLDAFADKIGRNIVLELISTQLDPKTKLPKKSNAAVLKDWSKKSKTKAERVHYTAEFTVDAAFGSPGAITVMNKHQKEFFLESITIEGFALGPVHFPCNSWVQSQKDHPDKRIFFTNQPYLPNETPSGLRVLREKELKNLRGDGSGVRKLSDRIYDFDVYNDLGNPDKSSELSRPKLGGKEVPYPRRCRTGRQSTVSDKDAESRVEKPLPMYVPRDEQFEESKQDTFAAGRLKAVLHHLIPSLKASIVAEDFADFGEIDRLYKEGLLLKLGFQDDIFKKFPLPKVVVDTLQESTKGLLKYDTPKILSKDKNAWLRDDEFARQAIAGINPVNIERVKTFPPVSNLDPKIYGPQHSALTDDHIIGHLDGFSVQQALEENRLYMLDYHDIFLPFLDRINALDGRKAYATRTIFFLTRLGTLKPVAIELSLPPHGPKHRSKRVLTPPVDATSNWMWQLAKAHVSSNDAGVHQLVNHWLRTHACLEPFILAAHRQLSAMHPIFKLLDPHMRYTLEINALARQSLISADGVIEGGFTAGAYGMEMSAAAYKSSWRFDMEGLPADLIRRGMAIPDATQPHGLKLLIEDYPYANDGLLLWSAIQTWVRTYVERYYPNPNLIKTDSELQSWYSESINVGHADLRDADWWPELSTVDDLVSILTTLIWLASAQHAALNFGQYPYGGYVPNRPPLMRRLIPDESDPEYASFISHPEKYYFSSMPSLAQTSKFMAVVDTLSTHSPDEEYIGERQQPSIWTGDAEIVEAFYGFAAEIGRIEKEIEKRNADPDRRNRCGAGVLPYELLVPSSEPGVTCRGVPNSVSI

[4] = biological target: T4, LOX2 (Arabidopsis thaliana, UniProt P38418); design: made in house; host or cells: E. coli Nico21(DE3), pET15b; method as in PMID 18949503; details: cited from earlier work
T4 sequence (P38418 71-896): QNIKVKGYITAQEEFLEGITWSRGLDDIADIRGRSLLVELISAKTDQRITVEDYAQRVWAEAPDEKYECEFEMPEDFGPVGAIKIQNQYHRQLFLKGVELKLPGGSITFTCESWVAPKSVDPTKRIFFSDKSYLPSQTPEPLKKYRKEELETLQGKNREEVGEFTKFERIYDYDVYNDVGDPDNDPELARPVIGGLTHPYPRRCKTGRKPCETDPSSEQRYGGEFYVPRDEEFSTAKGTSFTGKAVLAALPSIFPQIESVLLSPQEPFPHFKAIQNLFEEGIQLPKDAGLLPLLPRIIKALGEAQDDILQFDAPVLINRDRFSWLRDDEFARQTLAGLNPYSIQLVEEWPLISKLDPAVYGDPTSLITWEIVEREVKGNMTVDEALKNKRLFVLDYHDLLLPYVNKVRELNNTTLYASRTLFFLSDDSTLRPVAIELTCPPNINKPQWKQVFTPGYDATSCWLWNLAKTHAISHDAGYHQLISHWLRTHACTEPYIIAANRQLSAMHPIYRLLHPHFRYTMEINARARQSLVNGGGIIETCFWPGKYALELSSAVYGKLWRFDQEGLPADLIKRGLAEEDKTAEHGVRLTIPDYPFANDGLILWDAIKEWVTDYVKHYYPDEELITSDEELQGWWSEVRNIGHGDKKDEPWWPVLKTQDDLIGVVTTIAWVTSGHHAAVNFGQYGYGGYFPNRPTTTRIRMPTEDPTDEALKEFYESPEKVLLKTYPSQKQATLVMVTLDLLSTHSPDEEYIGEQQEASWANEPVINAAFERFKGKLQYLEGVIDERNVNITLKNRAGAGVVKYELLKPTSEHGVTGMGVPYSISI

[5] = biological target: T4, LOX2; test: LOX2 activity, spectrophotometric (conjugated diene formation at 234 nm); details: for Relative Activity (%) LOX2: substrate specificity, 31 µM PUFA, 4 µg 13-LOX, LeA = 100%
[6] = biological target: T4, LOX2; test: LOX2 activity, oxygen electrode (polarography); format: biochemical; design: made in house; host or cells: E. coli Nico21(DE3), pET15b; details: 100 µM metal salt, LeA 30 µM in 20 mM HEPES pH 8.0, oxygen consumption vs control
[7] = biological target: T3, LOX3; test: LOX3 activity, oxygen electrode (polarography); format: biochemical; design: made in house; host or cells: E. coli Nico21(DE3), pET15b; details: 100 µM metal salt, LeA 30 µM in 20 mM HEPES pH 8.0, oxygen consumption vs control
[8] = biological target: T1, LOX4; test: LOX4 activity, oxygen electrode (polarography); format: biochemical; design: made in house; host or cells: E. coli Nico21(DE3), pET15b; details: for Relative Activity (%) LOX4: 100 µM metal salt, LeA 30 µM in 20 mM HEPES pH 8.0, oxygen consumption vs control; for Protective effect on LOX4 against 12-OPDA: 1.3 mM GSH, 140 µM 12-OPDA
[9] = biological target: T2, LOX6; test: LOX6 activity, oxygen electrode (polarography); format: biochemical; design: made in house; host or cells: E. coli Nico21(DE3), pEXP5-NT/TOPO; details: 100 µM metal salt, LeA 30 µM in 20 mM HEPES pH 8.0, oxygen consumption vs control
[10] = read-out: Inhibition after pre-incubation with PUFA
[11] = read-out: Km app, substrate LeA, Michaelis Menten fit, apparent
[12] = enzyme 0.225 µg/µL incubated 10 min 30 °C with 280 µM chemical, 4.8 µM LeA, 50 mM Tris-HCl pH 7.2, vs solvent control

- Relative Activity (%) LOX4 ([1]; 50 mM Tris-HCl pH 7.2): 4 ± 1%
- Relative Activity (%) LOX6 ([2]; 50 mM Tris-HCl pH 7.2): 8 ± 3%
- Relative Activity (%) LOX3 ([3]; 50 mM Tris-HCl pH 7.2): 5 ± 1%
- Relative Activity (%) LOX2 ([5]; 50 mM Tris-HCl pH 7.2): 50% and 50 ± 4%
SMILES: CCCCC/C=C\C/C=C\C/C=C\C/C=C\CCCC(=O)O [ARA, arachidonic acid]
- LOX2 activity with PUFA (relative) [4]: ~ 15%

- Relative Activity (%) LOX2 [6]: 50 ± 20%
- Relative Activity (%) LOX2 ([6]; listed as Cu^2+): strongly decreased
- Relative Activity (%) LOX3 [7]: no activity
- Relative Activity (%) LOX3 ([7]; listed as Cu^2+): abolished
- Relative Activity (%) LOX4 [8]: no activity
- Relative Activity (%) LOX4 ([8]; listed as Cu^2+): abolished
- Relative Activity (%) LOX6 [9]: no activity
- Relative Activity (%) LOX6 ([9]; listed as Cu^2+): abolished
SMILES: [Cl][Cu][Cl] [CuCl2]

- Relative Activity (%) LOX4 ([1]; 50 mM Tris-HCl pH 7.2): 8 ± 1%
- Relative Activity (%) LOX6 ([2]; 50 mM Tris-HCl pH 7.2): 31 ± 3%
- Relative Activity (%) LOX3 ([3]; 50 mM Tris-HCl pH 7.2): 7 ± 1%
- Relative Activity (%) LOX2 ([5]; 50 mM Tris-HCl pH 7.2): 56 ± 3%
SMILES: CC/C=C\C/C=C\C/C=C\C/C=C\C/C=C\C/C=C\CCC(=O)O [DHA, docosahexaenoic acid]

- Protective effect on LOX4 against 12-OPDA ([8]; 12.2 µg LOX4): ~ 7.1%
- Protective effect on LOX4 against 12-OPDA ([8]; doubled LOX4 concentration): ~ 11.7%
SMILES: N[C@@H](CCC(=O)N[C@@H](CS)C(=O)NCC(=O)O)C(=O)O [GSH]

- inhibition at 118 µM [1, 10]: > 50%
- Relative Activity (%) LOX4 ([1]; 50 mM Tris-HCl pH 7.2): 11 ± 1%
- inhibition at 29 µM [2, 10]: > 50%
- Relative Activity (%) LOX6 ([2]; 50 mM Tris-HCl pH 7.2): 17 ± 1%
- inhibition at 118 µM [3, 10]: > 50%
- Relative Activity (%) LOX3 ([3]; 50 mM Tris-HCl pH 7.2): 12 ± 1%
- Relative Activity (%) LOX2 ([5]; 50 mM Tris-HCl pH 7.2): 79% and 79 ± 7%
SMILES: CCCCC/C=C\C/C=C\CCCCCCCC(=O)O [LA, linoleic acid]
- LOX2 activity with PUFA (relative) [4]: ~ 40%

SMILES: CC/C=C\C/C=C\C/C=C\CCCCCCCC(=O)O [LeA, α-linolenic acid]
- Maximum activity in pH profile ([1]; LeA 9.8 µM, optimal pH 7.2): 62.3 ± 0.4 nmol·s^−1·mg^−1
- Km [1, 11]: 5.8 µM
- Vmax app ([1]; substrate LeA, Michaelis Menten fit, apparent): 128 ± 18 nmol/s/mg and 128 nmol/s/mg
- Relative Activity (%) LOX4 ([1]; 50 mM Tris-HCl pH 7.2): 100%
- Maximum activity in pH profile ([2]; LeA 9.8 µM, optimal pH): 1.6±0.1 nmol·s^−1·mg^−1
- Km [2, 11]: 1.2 ± 0.4 µM
- Relative Activity (%) LOX6 ([2]; 50 mM Tris-HCl pH 7.2): 100%
- Maximum activity in pH profile ([3]; LeA 9.8 µM, optimal pH): 50.5±2.8 nmol·s^−1·mg^−1
- Relative Activity (%) LOX3 ([3]; 50 mM Tris-HCl pH 7.2): 100%
- Maximum activity in pH profile ([5]; LeA 9.8 µM, optimal pH 6.6): 3.9 ± 0.4 nmol·s^−1·mg^−1
- Km ([5]; read-out: Km app, substrate LeA, Michaelis Menten fit, apparent (purity and iron load not considered)): 26.3 ± 2 µM
- Relative Activity (%) LOX2 ([5]; 50 mM Tris-HCl pH 7.2): 100%

SMILES: CCN1C(=O)C=CC1=O [NEM, N-ethylmaleimide]
- Photometry Relative activity (%) LOX4 [1, 12]: 3 ± 2%
- Photometry Relative activity (%) LOX6 [2, 12]: 13 ± 2%
- Photometry Relative activity (%) LOX3 [3, 12]: 29 ± 10%
- Photometry Relative activity (%) LOX2 [5, 12]: 35 ± 10%
